Molecular target: T1, MMP-13 (Homo sapiens, UniProt P45452)
T1 construct: purchased Invitek GmbH, Berlin, Germany HM 13110010
Assay: MMP-13 marker substrate conversion (fluorescence) in the presence of collagen II and test substance
Format: biochemical
Settings: control without test substance 49%
Experimental: MMP-13 was obtained as a commercial product (Cat. No. HM 13110010) from Invitek GmbH, Berlin, Germany, activated according to the manufacturer's instruction, and diluted to 10 μg/10 ml with TCB buffer. TCB buffer was prepared by dissolving 10 mM tris(hydroxymethyl)aminomethane (Sigma-Aldrich Chemie GmbH, Deisenhofen, Germany) in water and adjusting the pH to 7.5 with HCl. 100 mM CaCl2×2H2O (Merck KGaA, Darmstadt, Germany) and 0.05% of Brij 35 solution, 30% (w/v) (Sigma-Aldrich Chemie GmbH, Deisenhofen, Deutschland), are added to said solution.
A solution of 10 mmol/l (7-methoxycoumarin-4-yl )acetyl-Pro-Leu-Gly-Leu-(3-[2,4-dinitrophenyl]-L-2,3-diaminopropionyl)-Ala-Arg-[…] (SEQ ID NO: 1). (Bachem Biochemica GmbH, Heidelberg, Germany) in dimethyl sulfoxide (DMSO) (Riedel-de Haen AG, Seelze, Germany) was diluted 1:40 (v/v) with water.
10 mg of human […] (Biocon, Potsdam, Germany) were dissolved in 2400 μl of 10 mmol/l acetic acid (72 hours at 4° C.), and then 1300 μl of a sodium bicarbonate solution (250 mmol/l) CaCl2×2H2O (Merck KGaA, Darmstadt, Germany) were added dropwise.
Test substance (suspected inhibitor or ligand), typically dissolved in water at an appropriate concentration relative to the amount of enzyme used.
The components A) (25 μl), B) (5 μl), C) (10 μl) and D) (10 μl) were mixed in a total volume of 50 μl, and fluorescence was measured in a commercial spectrofluorimeter after 15 minutes (excitation at 330 nm, emission at 390 nm, Spectrafluor plus, Tecan Deutschland GmbH, Crailsheim, Germany).
Enzyme and inhibitor were preincubated at room temperature for 15 min. The reaction was started by adding 5 μl of marker substrate solution (component B at 25 μM).
The fluorescence in example 1 was set at 100%, and the measured values of the other examples are based on this value.

[1] = 200 μmol/l test substance, components A (MMP-13), B (marker substrate), C (collagen II) present

Row | Measured value (fluorescence, example 1 set at 100%) [1] | Measured value (fluorescence, example 1 set at 100%) (200 μmol/l test substance, components A (MMP-13), B (marker substrate), C (collagen II) present, listed as (I)) | Measured value (fluorescence, example 1 set at 100%) (60 μg/well (60 μg/50 μl) test substance, components A, B, C present) | Compound
1 | 59% | 59% | – | Fc1ccc(/C(=C\CCN2CCC(=C(c3ccccc3)c3ccccc3)CC2)c2ccccc2)cc1 [substance (I), 4-(diphenylmethylene)-1-[4-(p-fluorophenyl)-4-phenyl-3-butenyl]piperidine]
2 | 0% | – | – | C[C@H]1c2cccc(O)c2C(=O)C2=C(O)[C@]3(O)C(=O)C(C(N)=O)=C(O)[C@@H](N(C)C)[C@@H]3[C@@H](O)[C@@H]21 [doxycycline]
3 | – | – | 73% | protamine sulfate

— patent publication US6737246B2, “Method for detecting protein inhibitors and ligands of medical value” (Aventis Pharma Deutschland, GmbH, priority 2000, dated 2004)
